row,melting point [°C],SMILES
1,112 to 114,Nc1ncn(Cc2cccnc2)n1
2,67 to 69,Clc1cc(Cl)cc(-c2noc(Cl)n2)c1
3,119 to 121,O=C(CC(=O)NCc1ccccc1)NCc1ccccc1
4,198 to 200,Cc1ccn(-c2cccc(C(=O)O)c2)n1
5,115 to 117,NC(=S)C1CCCCC1
6,79 to 81,O=Cc1ccc(-c2ccc(F)cc2)o1
7,176 to 178,O=S1(=O)N=C2CCCCCN2C(c2ccncc2)N1 (stereo unspecified)
8,172 to 174,Cc1cc(O)cc(=O)n1CCC(=O)O
9,116 to 118,CC(Sc1nnnn1C1CC1)C(=O)O (stereo unspecified)
10,54 to 56,O=S(=O)(NC1CC1)c1ccc(F)cc1
11,< 17,Cc1cccc(-c2nnc(C(C)Cl)o2)c1 (stereo unspecified)
12,123 to 125,CC(=O)C12CC3CC(C1)CC(C(=O)O)(C3)C2
13,246 to 248,O=C(Nc1ccc(O)cc1)c1ccc(Cl)cc1
14,53 to 55,O=[N+]([O-])c1cc(S(=O)(=O)Cl)ccc1Br
15,213 to 215,O=C(Nc1ccccc1Cl)c1c[nH]c2ccccc12
16,49 to 51,CC(Cc1ccc(Cl)cc1Cl)C(=O)O (stereo unspecified)
17,199 to 201,CC(=O)Nc1cccc(NC(=O)C2CCNCC2)c1
18,212 to 214,O=C(CCl)NCC1COc2ccccc2O1 (stereo unspecified)
19,90 to 92,O=S(=O)(c1ccc2c(c1)CCC2)N1CCNCC1
20,103 to 105,COc1ccc(OC)c(C(C)NC(=O)CCl)c1 (stereo unspecified)
21,189 to 191,COc1cc(C)cc(C(=O)O)c1O
22,237 to 239,NC(=O)c1ccc(-n2cccc2)cc1
23,109 to 111,Cc1cccc(NC(=O)N2CCNCC2)c1
24,89 to 91,Clc1ccc2nc(Cl)nc(Cl)c2c1
25,76 to 80,O=C(Nc1ccc(F)cc1)OCC(F)(F)F

row,melting point [°C],SMILES
1,< 17,CC(Cl)C(=O)NCCc1cccs1 (stereo unspecified)
2,91 to 93,N#Cc1ccccc1CN1CCOC1=O
3,63 to 65,O=S(=O)(c1ccc(CCl)cc1)C(F)F
4,210 to 212,CON(C)S(=O)(=O)c1ccc(C(=O)O)cc1
5,117 to 119,NCCNc1ncnc2sccc12
6,103 to 105,N#Cc1ccc(S(=O)(=O)N2CCCC2)cc1
7,170 to 180,CC(=O)c1c(C)[nH]c(C(=O)CCl)c1C
8,143 to 145,C=CCN1C(=O)C(=O)N(CC(=O)O)C1=O
9,58 to 60,Cc1nn(C(C)C)c(C)c1N
10,86 to 90,O=C(Nc1cccnc1)C(Cl)C(=O)c1ccccc1 (stereo unspecified)
11,187 to 189,NC(=NO)c1ccc([N+](=O)[O-])cc1
12,285 to 287,C=CCn1c(S)nc2cc3ccccc3cc2c1=O
13,45 to 47,CCOc1ccc(OC)cc1N
14,135 to 136,O=C(O)C1CCN(S(=O)(=O)c2cccc(C(F)(F)F)c2)CC1
15,133 to 135,COc1ccc2cc(CCl)c(Cl)nc2c1
16,106 to 108,Nc1cnc(Br)c(Br)c1
17,165 to 167,NC(=O)CC1CCCCC1
18,106 to 110,Cc1nn(CC(C)C)c(C)c1CC(=O)O
19,76 to 78,Clc1ccc(NCc2cccnc2)c(Cl)c1
20,58 to 60,Nc1cc(CCc2ccccc2)[nH]n1
21,179 to 181,Cc1ccc(-c2csc3ncnc(Cl)c23)cc1C
22,93 to 95,COc1ccccc1CN1C(=O)C=CC1=O
23,143 to 145,N#Cc1ccc(Oc2cccc(Cl)c2Cl)nc1
24,130 to 132,CNC(=O)NC(=O)C(Cl)c1ccccc1 (stereo unspecified)
25,179 to 181,O=C(O)CNC(=O)NC1CC1

row,melting point [°C],SMILES
1,71 to 73,Nc1ccc2c(c1)CCO2
2,65 to 67,Cc1ccccc1-n1nnnc1S
3,288 to 290,CCCCN1C(=O)CCC(C(=O)O)C1c1ccccc1OC (stereo unspecified)
4,146 to 148,Oc1ccc(-c2cscn2)cc1
5,70 to 80,O=C(O)CSCc1cccc(Br)c1
6,127 to 129,C#Cc1cccc(NCC(=O)NC)c1
7,52 to 54,CN(CC12CC3CC(CC(C3)C1)C2)C(=O)CCl
8,142 to 144,Cc1csc(NCC(F)(F)F)n1
9,108 to 110,O=C(c1cccnc1)c1ccc2c(c1)CCO2
10,69 to 71,Cn1cc(-c2cccc(CN)c2)cn1
11,104 to 106,Nc1c([N+](=O)[O-])cc(F)c(F)c1Br
12,94 to 96,O=C(O)c1cccc(OCC(F)F)n1
13,137 to 139,O=S(=O)(NC1CCCNC1)c1cccc(F)c1 (stereo unspecified)
14,65 to 67,COc1ccc(Oc2ccc(C=O)cc2)cc1
15,212 to 214,Cc1c(N)cccc1S(N)(=O)=O
16,106 to 108,N#Cc1ccc(N2CCCC2=O)cc1
17,148 to 150,O=C(O)CNC(=O)c1cccc(Br)c1
18,95 to 97,CC1(C)NC(=O)C1(C)C
19,49 to 51,O=c1c(Cl)c(Cl)c1=O
20,169 to 171,O=Cc1[nH]nnc1-c1ccccc1
21,80 to 82,COC(=O)C(O)c1cccc(Cl)c1 (stereo unspecified)
22,154 to 156,NS(=O)(=O)c1cc(C(F)(F)F)ccc1Cl
23,78 to 80,N#Cc1cccc(OCCCCC(=O)O)c1
24,55 to 58,COC(=O)c1ccc(CC#N)cc1
25,131 to 133,Cc1ccc(N)cc1S(=O)(=O)NC1CC1

row,melting point [°C],SMILES
1,132 to 136,CCCC1NC(=O)NC1=O (stereo unspecified)
2,199 to 201,CCc1n[nH]c(C(=O)O)c1Cl
3,187 to 189,CC(Cl)c1nc(-c2nnc[nH]2)no1 (stereo unspecified)
4,77 to 79,Cc1cc(Br)ccc1N1CCCS1(=O)=O
5,214 to 216,O=C(O)Cn1ccnn1
6,129 to 131,CC(C)(C)c1ccc(C(=O)NCCC(=O)O)cc1
7,239 to 241,NC(=O)CNS(=O)(=O)c1c[nH]c(C(=O)O)c1
8,208 to 210,Cc1cc2c(cc1Br)NC(=O)C(C)O2 (stereo unspecified)
9,187 to 189,CC(C)(C)c1cnnc(N)n1
10,87 to 89,CC(Oc1ccc(F)cc1Br)C(=O)O (stereo unspecified)
11,179 to 181,Cc1ccc(O)c(C(=O)NO)c1
12,143 to 145,N#CC1=C(N)Oc2ccccc2C1
13,121 to 123,O=S1(=O)N=C(Cl)c2ccccc21
14,269 to 271,Oc1[nH]nc2c1CC(c1ccccc1)CC2 (stereo unspecified)
15,72 to 74,CNC1CC(=O)N(Cc2ccccc2)C1=O (stereo unspecified)
16,117 to 119,CC(C)(C)OC(=O)NC(C(=O)O)C(C)(C)C (stereo unspecified)
17,89 to 91,O=C1CC2CCC(C1)N2c1ccccc1
18,130 to 132,COc1cc(C=O)c([N+](=O)[O-])cc1OCc1ccccc1
19,352 to 354,Nc1ccc2[nH]c(=O)c(=O)[nH]c2c1
20,233 to 235,CC(C)C(=O)Nc1cc(C(=O)O)c(F)cc1F
21,153 to 155,N#Cc1ccccc1OCc1cccc(C(=O)O)c1
22,89 to 91,CC(O)(C(=O)O)c1ccc(F)cc1 (stereo unspecified)
23,116 to 118,Cc1ccc(NS(C)(=O)=O)c(N)c1
24,154 to 156,O=C(O)c1nn(-c2ccccc2)cc1O
25,104 to 106,N#CCCN1C(=O)NC2(CCCC2)C1=O

row,melting point [°C],SMILES
1,106 to 108,COc1ccc(NC(C)=O)cc1N
2,57 to 59,CNC(CO)c1ccc(OC)cc1 (stereo unspecified)
3,59 to 61,Cc1cnoc1N
4,140 to 142,CCCCOc1ccc(C(=O)O)cc1OCCCC
5,92 to 94,CCNc1nc(C(=O)OCC)cs1
6,48 to 50,CC(=O)c1cc([N+](=O)[O-])ccc1F
7,86 to 88,O=[N+]([O-])c1ccc(NC2CCCC2)cc1
8,89 to 91,CC(=O)N1CCN(C(=O)CCl)CC1
9,124 to 126,Cc1cccc(COc2cccc(C(=O)O)c2)c1
10,167 to 169,CC(C)N1CCc2c(sc(N)c2C#N)C1
11,141 to 143,Cc1cc2occ(CC(=O)O)c2cc1C(C)C
12,83 to 87,O=Cc1ccc(-c2ccc(Cl)cc2)s1
13,148 to 152,CN(c1ccccc1)S(=O)(=O)c1cccc(C(=O)O)c1
14,136 to 138,COc1ccc(S(=O)(=O)N2CCc3ccccc32)cc1C(=O)O
15,110 to 112,Cc1cccc(-c2nc(CC(=O)O)cs2)c1
16,129 to 131,Cc1ccc(CC(=O)O)c(Cl)c1
17,86 to 88,COc1ccccc1-c1cnc(CCl)o1
18,59 to 61,CNS(=O)(=O)CCC(=O)OCc1ccccc1
19,104 to 106,O=C(NCc1ccc2c(c1)OCO2)C(Cl)c1ccccc1 (stereo unspecified)
20,123 to 125,N#Cc1ccc(N2CCOCC2)nc1
21,290 to 292,O=C(O)c1ccc2nnc(C3CC3)n2c1
22,122 to 124,CS(=O)(=O)c1ccc(F)c(S(=O)(=O)Cl)c1
23,169 to 171,O=C(O)C=Cc1ccc2ccccc2n1
24,45 to 47,Fc1cccc2c1CCCN2
25,32 to 34,COC(=O)CSc1cncc(Cl)n1

row,melting point [°C],SMILES
1,114 to 116,O=C(CCl)Nc1ccc(Oc2ccc(Br)cc2)nc1
2,93 to 95,COC(=O)CNC(=O)Cc1ccc(N)cc1
3,231 to 233,O=C(O)c1[nH]nc(C2CC2)c1Cl
4,256 to 258,N#Cc1c[nH]c(C(=O)O)c1
5,173 to 175,O=C(O)CN1CCSC1=O
6,121 to 123,O=C(O)C1CCCN(S(=O)(=O)c2ccccc2)C1 (stereo unspecified)
7,189 to 191,O=C(O)c1cccnc1Oc1ccc(F)cc1Br
8,152 to 154,NC(=O)CC1CC2CCC1C2 (stereo unspecified)
9,179 to 181,FC(F)(F)Cn1c(-c2ccccc2)cnc1S
10,101 to 103,Cc1cc(C(=O)N2CCOCC2)ccc1N
11,106 to 108,CN(C)C(=O)COc1ccc(N)c(F)c1
12,57 to 59,COC(=O)c1cc([N+](=O)[O-])c(C)cc1C
13,249 to 251,NC(=O)CNc1ccc(C(=O)O)cc1
14,194 to 196,NNc1ccc(-n2cccn2)nn1
15,101 to 103,FC(F)c1nnc2ccc(Cl)nn12
16,185 to 187,Cc1cc(C)nc(-n2nc(C)cc2NC(=O)CCl)n1
17,136 to 138,CC(O)c1nc2cc(Cl)ccc2n1C (stereo unspecified)
18,202 to 204,NC(=O)c1ccc(S(N)(=O)=O)c(N)c1
19,242 to 244,Cc1cc(C(=O)O)ccc1-n1cncn1
20,159 to 161,O=C(O)Cc1c[nH]c2cc(F)ccc12

row,SMILES,melting point [°C]
1,O=C(Nc1nccs1)C(Cl)(Cl)Cl,203 to 205

# Reference: a melting point compilation (Tetko et al.)
